This is an account of results in patent US11759455B2, “Substituted 1H-imidazo[4,5-b]pyridin-2(3H)-ones and their use as GLUN2B receptor modulators” (JANSSEN PHARMACEUTICA NV, priority 2016, dated 2023).

The experiment has as its target T1, human GluN1/GluN2B NMDA receptors (Homo sapiens, UniProt Q13224).
T1 construct: expressed in transfected cells
The experiment can be described thus: Cell-based calcium flux (FLIPR) assay on cloned human NR1/NR2B ion channels expressed in mammalian cells (standard and HTS buffer variants).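 Note: stable Tet-On inducible cell line, Ca2+ influx triggered by glutamate at about EC40 plus 10 µM glycine, fluorescent dye read-out over 5 min, normalized to control wells.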

The mark [1] stands for this setting: standard assay buffer (0.5 mM MgCl2 dye loading; 137 mM NaCl, 4 mM KCl assay buffer), human GluN1/GluN2B cells, read-out: NR2B IC50 (μM) standard assay.
Setting [2] is: HTS assay buffer (1.5 mM MgCl2 in dye loading buffer; 150 mM NaCl, 3 mM KCl in assay buffer), human GluN1/GluN2B, read-out: NR2B IC50 (μM) HTS assay.
[3] abbreviates: standard assay buffer (0.5 mM MgCl2 in dye loading buffer; 137 mM NaCl, 4 mM KCl in assay buffer), human GluN1/GluN2B, read-out: NR2B IC50 (μM) standard assay.

Structures are written as SMILES. Read-outs that look alike come from different tables or passages of the source.

T1 sequence (Q13224 27-1484, other chains not shown): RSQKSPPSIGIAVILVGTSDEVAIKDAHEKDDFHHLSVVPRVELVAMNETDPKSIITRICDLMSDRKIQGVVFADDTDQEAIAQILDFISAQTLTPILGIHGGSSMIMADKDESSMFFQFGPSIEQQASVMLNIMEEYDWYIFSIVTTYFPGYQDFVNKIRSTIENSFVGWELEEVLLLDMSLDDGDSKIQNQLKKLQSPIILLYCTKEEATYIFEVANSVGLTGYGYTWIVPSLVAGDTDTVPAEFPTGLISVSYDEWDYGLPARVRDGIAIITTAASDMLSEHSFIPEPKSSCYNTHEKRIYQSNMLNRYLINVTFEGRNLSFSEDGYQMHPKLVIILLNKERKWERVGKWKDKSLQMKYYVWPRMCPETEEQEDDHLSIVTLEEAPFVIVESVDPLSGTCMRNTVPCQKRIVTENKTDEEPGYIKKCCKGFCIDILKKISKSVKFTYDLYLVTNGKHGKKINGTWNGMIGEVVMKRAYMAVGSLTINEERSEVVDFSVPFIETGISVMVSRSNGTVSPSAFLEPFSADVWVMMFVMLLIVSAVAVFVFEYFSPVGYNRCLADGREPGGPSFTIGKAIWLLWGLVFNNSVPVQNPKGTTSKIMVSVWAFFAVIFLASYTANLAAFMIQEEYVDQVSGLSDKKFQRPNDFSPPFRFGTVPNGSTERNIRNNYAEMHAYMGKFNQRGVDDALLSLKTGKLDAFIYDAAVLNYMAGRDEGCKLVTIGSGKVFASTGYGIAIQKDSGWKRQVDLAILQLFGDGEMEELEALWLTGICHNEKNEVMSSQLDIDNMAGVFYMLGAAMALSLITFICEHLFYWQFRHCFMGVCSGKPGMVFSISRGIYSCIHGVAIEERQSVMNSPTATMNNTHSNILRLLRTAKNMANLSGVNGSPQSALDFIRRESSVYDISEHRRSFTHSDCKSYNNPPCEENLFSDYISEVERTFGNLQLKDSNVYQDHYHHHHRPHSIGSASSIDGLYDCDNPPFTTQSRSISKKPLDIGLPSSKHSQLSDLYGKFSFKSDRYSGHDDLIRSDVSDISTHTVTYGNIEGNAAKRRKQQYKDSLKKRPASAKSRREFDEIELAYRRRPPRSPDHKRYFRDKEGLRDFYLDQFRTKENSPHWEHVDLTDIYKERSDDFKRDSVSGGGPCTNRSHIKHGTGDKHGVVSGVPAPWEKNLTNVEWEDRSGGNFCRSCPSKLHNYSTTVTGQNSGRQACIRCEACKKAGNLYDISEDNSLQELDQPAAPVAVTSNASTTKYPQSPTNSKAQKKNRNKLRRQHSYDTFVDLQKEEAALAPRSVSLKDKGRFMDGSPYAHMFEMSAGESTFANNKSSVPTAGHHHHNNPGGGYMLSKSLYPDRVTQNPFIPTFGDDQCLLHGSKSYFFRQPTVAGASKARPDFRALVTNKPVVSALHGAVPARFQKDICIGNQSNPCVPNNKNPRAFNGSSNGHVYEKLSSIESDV

The term IC50 denotes the concentration that gives 50% inhibition. For the molecule `Cn1c(=O)n(CC(=O)N2CCC2)c2cc(-c3ccsc3C(F)(F)F)cnc21` [Example 95, 1-[2-(Azetidin-1-yl)-2-oxo-ethyl]-3-methyl-6-[2-(trifluoromethyl)-3-thienyl]imidazo[4,5-b]pyridin-2-one], the IC50 under setting [1] stood at 0.096 µM. For the molecule `COc1ccc(-c2cnc3[nH]c(=O)n(Cc4ccccc4C#N)c3c2)c(OC)c1` [Example 487, 2-[[6-(2,4-Dimethoxyphenyl)-2-oxo-3H-imidazo[4,5-b]pyridin-1-yl]methyl]benzonitrile], the IC50 under setting [2] stood at 2.57 µM.

Turning to `Cc1cccc(-c2cnc3c(c2)n(CC(=O)N2CC(F)(F)C2)c(=O)n3C)c1` [Example 581, 1-[2-(3,3-Difluoroazetidin-1-yl)-2-oxo-ethyl]-3-methyl-6-(m-tolyl)imidazo[4,5-b]pyridin-2-one], under setting [3], the concentration for half-maximal inhibition (IC50) was 0.032 µM. On to `CNC(=O)Cn1c(=O)[nH]c2ncc(-c3ccc(OC)c(C)c3)cc21` [Example 439, 2-[6-(4-Methoxy-3-methyl-phenyl)-2-oxo-3H-imidazo[4,5-b]pyridin-1-yl]-N-methyl-acetamide], for which the IC50 under setting [2] is 3.37 µM. As for `Cn1c(=O)n(Cc2cccnc2)c2cc(-c3ccc(F)c(F)c3)cnc21` [Example 59, 6-(3,4-Difluorophenyl)-3-methyl-1-(3-pyridylmethyl)imidazo[4,5-b]pyridin-2-one], under setting [1], the IC50 is 0.246 µM.

In the case of `Cc1nccc(Cn2c(=O)[nH]c3ncc(-c4cccc(C(F)(F)F)c4)cc32)n1` [Example 254, 1-[(2-Methylpyrimidin-4-yl)methyl]-6-[3-(trifluoromethyl)phenyl]-3H-imidazo[4,5-b]pyridin-2-one], under setting [1], the IC50 came out at 0.824 µM. For `Cn1c(=O)n(CC(=O)N2CC(F)(F)C2)c2cc(-c3ccc(F)c(C(F)F)c3)cnc21` [Example 586, 1-[2-(3,3-Difluoroazetidin-1-yl)-2-oxo-ethyl]-6-[3-(difluoromethyl)-4-fluoro-phenyl]-3-methyl-imidazo[4,5-b]pyridin-2-one], the IC50 under setting [3] amounted to 0.051 µM. Take `CCOc1ccccc1-c1cnc2[nH]c(=O)n(CC(=O)NC3CC3)c2c1` [Example 456, N-Cyclopropyl-2-[6-(2-ethoxyphenyl)-2-oxo-3H-imidazo[4,5-1D]pyridin-1-yl]acetamide]: the IC50 under setting [3] stood at 0.146 µM. Turning to `COc1ccc(-c2cnc3[nH]c(=O)n(CC(=O)NC4CC4)c3c2)c(Cl)c1` [Example 37, 2-[6-(2-Chloro-4-methoxy-phenyl)-2-oxo-3H-imidazo[4,5-b]pyridin-1-yl]-N-cyclopropyl-acetamide], under “HTS assay buffer (1.5 mM MgCl2 dye loading; 150 mM NaCl, 3 mM KCl assay buffer), human GluN1/GluN2B cells, read-out: NR2B IC50 (μM) HTS assay”, the IC50 was 1.38 µM. Take `Cn1c(=O)n(CC(=O)N2CCC2)c2cc(-c3csc(C(F)(F)F)c3)cnc21` [Example 104, 1-[2-(Azetidin-1-yl)-2-oxo-ethyl]-3-methyl-6-[5-(trifluoromethyl)-3-thienyl]imidazo[4,5-b]pyridin-2-one]: the IC50 under setting [1] was found to be 0.048 µM.

Regarding `Cn1c(=O)n(Cc2cncc(F)c2)c2cc(-c3ccc(Cl)c(Cl)c3)cnc21` [Example 351, 6-(3,4-Dichlorophenyl)-1-[(5-fluoro-3-pyridyl)methyl]-3-methyl-imidazo[4,5-b]pyridin-2-one], the 50% inhibitory concentration (IC50) under setting [3] was 0.251 µM. In the case of `Cn1c(=O)n(Cc2cccnn2)c2cc(-c3ccc(C(F)F)s3)cnc21` [Example 100, 6-[5-(Difluoromethyl)-2-thienyl]-3-methyl-1-(pyridazin-3-ylmethyl)imidazo[4,5-b]pyridin-2-one], the IC50 under setting [1] was 0.033 µM. As for `Cn1c(=O)n(Cc2cncnc2)c2cc(-c3cccc(F)c3)cnc21` [Example 54, 6-(3-Fluorophenyl)-3-methyl-1-(pyrimidin-5-ylmethyl)imidazo[4,5-b]pyridin-2-one], the 50% inhibitory concentration (IC50) under setting [1] amounted to 0.61 µM. Take `Cn1c(=O)n(Cc2cccnc2)c2cc(-c3cccc(C(F)(F)F)c3)cnc21` [Example 362, 3-Methyl-1-(3-pyridylmethyl)-6-[3-(trifluoromethyl)phenyl]imidazo[4,5-b]pyridin-2-one]: under setting [3], the IC50 stood at 0.105 µM.

As to `Cc1cc(Cn2c(=O)[nH]c3ncc(-c4cccc(C(F)(F)F)c4)cc32)ccc1F` [Example 221, 1-[(4-Fluoro-3-methyl-phenyl)methyl]-6-[3-(trifluoromethyl)phenyl]-3H-imidazo[4,5-b]pyridin-2-one], the IC50 under setting [1] came out at 8.71 µM. For the molecule `CCOc1ccc(F)cc1-c1cnc2[nH]c(=O)n(CC3CC3)c2c1` [Example 466, 1-(Cyclopropylmethyl)-6-(2-ethoxy-5-fluoro-phenyl)-3H-imidazo[4,5-b]pyridin-2-one], the IC50 under setting [2] was 15.8 µM. `Cc1csc(-c2cnc3c(c2)n(CC(=O)N2CC(F)C2)c(=O)n3C)n1` [Example 86, 1-[2-(3-Fluoroazetidin-1-yl)-2-oxo-ethyl]-3-methyl-6-(4-methylthiazol-2-yl)imidazo[4,5-b]pyridin-2-one]: under setting [1], the IC50 worked out at 1.6 µM. Regarding `Cn1c(=O)n(CC(=O)N2CC(F)C2)c2cc(-c3cccc(Cl)c3)cnc21` [Example 406, 6-(3-Chlorophenyl)-1-[2-(3-fluoroazetidin-1-yl)-2-oxo-ethyl]-3-methyl-imidazo[4,5-b]pyridin-2-one], the IC50 under setting [3] stood at 0.016 µM. Same read-out and setting: the result for `Cn1c(=O)n(Cc2cccnn2)c2cc(-c3ccc(Cl)c(C(F)(F)F)c3)cnc21` [Example 384, 6-[4-Chloro-3-(trifluoromethyl)phenyl]-3-methyl-1-(pyridazin-3-ylmethyl)imidazo[4,5-b]pyridin-2-one] reads 0.206 µM. For `Cc1nnc(Cn2c(=O)[nH]c3ncc(-c4ccc(F)cc4)cc32)o1` [Example 13, 6-(4-Fluorophenyl)-1-[(5-methyl-1,3,4-oxadiazol-2-yl)methyl]-3H-imidazo[4,5-b]pyridin-2-one], the half-inhibitory concentration (IC50) under setting [1] was found to be 0.076 µM.

Take `CCCNCCn1c(=O)[nH]c2ncc(-c3cc(F)cc(F)c3)cc21` [Example 189, 6-(3,5-Difluorophenyl)-1-[2-(propylamino)ethyl]-3H-imidazo[4,5-b]pyridin-2-one]: the IC50 under setting [1] stood at 2.57 µM. Turning to `Cn1c(=O)n(CC(=O)N2CC(F)C2)c2cc(-c3ccc(F)s3)cnc21` [Example 83, 1-[2-(3-Fluoroazetidin-1-yl)-2-oxo-ethyl]-6-(5-fluoro-2-thienyl)-3-methyl-imidazo[4,5-b]pyridin-2-one], the IC50 under setting [1] amounted to 0.033 µM. Take `Cn1c(=O)n(CC(=O)N2CC(F)C2)c2cc(-c3ccc(Cl)c(OC(F)F)c3)cnc21` [Example 593, 6-[4-Chloro-3-(difluoromethoxy)phenyl]-1-[2-(3-fluoroazetidin-1-yl)-2-oxo-ethyl]-3-methyl-imidazo[4,5-b]pyridin-2-one]: the IC50 under setting [3] came to 0.053 µM. As to `Cn1cnc(Cn2c(=O)[nH]c3ncc(-c4ccc(F)cc4)cc32)n1` [Example 141, 6-(4-Fluorophenyl)-1-[(1-methyl-1,2,4-triazol-3-yl)methyl]-3H-imidazo[4,5-b]pyridin-2-one], under setting [1], the IC50 came to 1.18 µM. In the case of `Cc1cc(-c2cnc3c(c2)n(Cc2cncc(Cl)c2)c(=O)n3C)ccc1F` [Example 367, 1-[(5-Chloro-3-pyridyl)methyl]-6-(4-fluoro-3-methyl-phenyl)-3-methyl-imidazo[4,5-b]pyridin-2-one], under setting [3], the IC50 was found to be 0.117 µM. Turning to `Cc1c(-c2cnc3[nH]c(=O)n(CCN4CCC4)c3c2)cccc1C(F)(F)F` [Example 168, 1-[2-(Azetidin-1-yl)ethyl]-6-[2-methyl-3-(trifluoromethyl)phenyl]-3H-imidazo[4,5-b]pyridin-2-one], under setting [1], the IC50 worked out at 4.23 µM.
